Drawing on PubChem BioAssay (NCI), this text covers TGI for eight compounds.

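Briefly, cells in 96-well plates were exposed to five compound concentrations for 48 h, and endpoints were estimated by linear interpolation. At the TGI there is no net growth.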 Bounds are passed on as bounds.

Common to all, as to experiment: NCI anticancer screen, dose series, 48 h
For assay [1], the system named is XF 498 CNS.
The subject of assay [2] is M19-MEL melanoma.
Assay [3] concerns KM20L2 colon.
For assay [4], the system named is SNB-78 CNS.
Assay [5] deals with DMS 273 small cell lung.
The test system of assay [6] is DLD-1 colon.
Assay [7] relates to DMS 114 small cell lung.
The subject of assay [8] is RXF-631 renal.
Assay [9] concerns HOP-18 NSCLC.

As to `COc1cc(/C=C(\C#N)C(=O)c2ccccc2)ccc1O`, the TGI in assay [1], in assay [2], in assay [3] and in assay [4] was over 100 µM in each case.

As for `CC(=O)OC[C@]1(O)CC[C@@]23CC1C[C@@H]2CCC1C(C)(C)CCC[C@@]13C` (stereo partly drawn), the TGI came to 12.7 µM in assay [5]; 28.8 µM in assay [6]; 27.2 µM in [1]; 29.4 µM in assay [2]; 31.7 µM in [3]; 25.3 µM in [7]. Besides, the results for the TGI in assay [4] and in assay [8] were 32.7 µM and 27.3 µM, respectively.

Take `O=C1CCC(=O)N1Cc1ccccc1N=[N+]([O-])c1ccccc1CN1C(=O)CCC1=O`: the TGI in assay [5], in [1], in [2], in [3], in [7] and in [4] was over 100 µM throughout.

Consider `CN(C(=O)C12C3C4C1C1C4(C(=O)C45C6C7C4C4C5C6C74C)C3C12C)C(C)(C)C` (stereo not drawn), for which the TGI in [5] is over 100 µM; in [6] it was over 100 µM; in assay [1], over 100 µM; in assay [2], over 100 µM; in assay [3], 85.3 µM; in [7] it was over 100 µM. For the same compound, the TGI in assay [4] and in assay [8] was over 100 µM each time.

For the compound `COc1cccc(NC(=O)/C(CC(=O)CC(c2ccccc2)c2c(O)c3ccccc3oc2=O)=N\NC(C)(C)C)c1OC` (stereo not drawn), the TGI in assay [6], in [2], in assay [3], in assay [7] and in [4] was over 100 µM throughout.

Consider `COC(=O)N1CCc2c(nc(N(C)CCO)[nH]c2=O)C1`, for which the TGI in assay [5], in [9], in assay [6], in assay [1], in [2] and in assay [3] was over 100 µM throughout. Besides, the TGI in assay [7] and in assay [4] was over 100 µM each time.

`Clc1ccc2c(c1)C1C(CO2)C(c2ccccc2)=NN1c1ccccc1` (stereo not drawn): the TGI in assay [5] is 88.7 µM; in assay [9] it was 50.8 µM; in assay [6], over 100 µM; in assay [1], 59 µM; in assay [2] it was over 100 µM; in assay [3] it was over 100 µM. Moreover, the TGI in [7] is 77.5 µM; in assay [4], over 100 µM.

Turning to `COc1ccc(C(=O)Cc2c(C(=O)c3ccccc3)c3ccccc3n2C(=O)c2ccccc2)cc1`, the TGI in assay [5], in [6], in assay [1], in assay [2], in assay [3] and in assay [7] was over 100 µM throughout.
